Assay results as given in patent US9668960B2, “Methods useful in studying or modulating skin or hair pigmentation, plant extracts for use in compositions and cosmetic care method” (L V M H RECHERCHE, priority 2008, dated 2017).

Tested on: Myo-X
Experiment: Myo-X expression by double immunolabelling in normal human melanocytes
Format: cell-based
Protocol: Immunofluorescence staining: For EM:KC co-culture studies fully matched melanocytes (p4) and keratinocytes (p2) were seeded onto 8-well Lab-Tek® chamber slides at a cell density of 1×10^4 cells/well and in a ratio of 1 melanocyte to 10 keratinocytes. Co-cultures were maintained overnight (16 h) in a mixture of full K-SFM and MEM (co-culture medium) to allow cell attachment, followed by medium replenishment for a further 24 h. Cells were then fixed in ice-cold methanol for 10 min at −20° C., washed in PBS and then blocked with 10% donkey serum for the detection of protein expression in filopodia.
For double labelling experiments the first primary antibody, Myo-X (1:100) (Santa Cruz, Calif., USA) was applied overnight at 4° C., followed by incubation with FITC-conjugated secondary antibody (1:100) for 1 h at room temperature. The second primary antibody, either cytokeratin (1:100) (Abeam, Cambridge, UK) or β-Actin (1:100) (Santa Cruz, USA) or Fascin (1:100) (Santa Cruz, USA) or NKi/beteb (1:30) (Monosan) was applied for 1 h at room temperature followed by a TRITC-conjugated secondary antibody (1:100) (Jackson Immunoresearch Laboratories, Inc., West Grove, USA). DAPI (Vector Laboratories, Burlingame, Calif.) was used to stain nuclei. Images were captured with a cooled Hamamatsu digital camera using a 100× objective and post-processed using Paint Shop Pro (Jasc Software Ver. 7. CA, USA). Negative controls included the omission of primary antibody and replacement with non-immune serum from secondary antibody host and inclusion of secondary antibodies.
Myo-X was also detected in EM filopodia.

## CC(C)Cn1c(=O)n(C)c(=O)c2[nH]cnc21 [IBMX]
Compared with untreated cells
  Myo-X expression in EM (immunolabelling, words): increased the expression of Myo-X
  Myo-X localization in EM filopodia: enhanced Myo-X localization in EM filopodia
Total number of yellow spots beyond EM dendritic tips
  overall number of filopodia: increased
